Measured values published in article PMC11632778, “Adaptive Synthesis, Supramolecular Behavior, and Biological Properties of Amphiphilic Carbosilane-Phosphonium Dendrons with Tunable Structure” (Biomacromolecules, 2024).
Like-named read-outs stand apart in the source and are kept apart here.

Columns and labels:
[1] = test system: S. aureus MRSA—clinical isolate C1926; experiment: Microdilution broth MIC; type: cell-based; settings: Staphylococcus aureus, 24 h
[2] = test system: anti-miR-21 oligo(2′-O-methylribonucleotide); experiment: DLS of dendriplexes with anti-miR-21 oligonucleotide; type: physicochemical; settings: for mean diameter of dendriplex: 0.9% NaCl
Protocol: Dendriplexes were characterized by DLS using Zetasizer Nano-S (Malvern Panalytical, UK) equipped with a 632.8 nm laser, applying detection angle 173°. Mean diameters from the intensity-weighted size distribution are given. Average results from three consecutive sets of measurements generated by Malvern Zetasizer Software version 7.13 are presented.
Amphiphilic dendrons (1.5–73 μM) were mixed with the anti-miR-21:5′-m([…]) (500 nM) in 0.9% NaCl solution in milli-Q water. The dendrons’ concentrations were chosen to attain the charge ratio (CR, the ratio of cations over anions in the sample) of 1.2, 2.5, 5, 10, or 20. The samples were incubated for 15 min at rt prior to measurements.

S. aureus CCM 4516 = experiment: Microdilution broth MIC; type: cell-based; settings: Staphylococcus aureus
Protocol: (§1) In vitro antibacterial activity of the prepared amp-DDNs (DnP6-1C12, DnP3-1C12, DnP3-2C12, and DnP3-2C18) was tested on a panel of four G+ (Staphylococcus aureus CCM 4516, methicillin-resistant S. aureus clinical isolate C1923, Staphylococcus epidermidis clinical isolate C1936, and vancomycin-resistant Enterococcus faecium clinical isolate S2484) and four G-bacterial strains (Escherichia coli K12, CCM 7929, E. coli clinical isolate A1235, extended-spectrum β-lactamase-producing (ESBL+) Klebsiella pneumoniae clinical isolate C1914, and multiresistant Pseudomonas aeruginosa clinical isolate A1245). CCM collection strains were obtained from the Czech Collection of Microorganisms. All clinical isolates were obtained during routine procedures in the clinical laboratory at the University Hospital Hradec Králové. All strains were stored at −70 °C in the Cryobank according to the manufacturer’s instructions. Subsequently, when needed, each bacterial strain was inoculated and cultivated on Mueller–Hinton agar (HiMedia, Cadersky-Envitek, Prague, Czech Republic).
(§2) The antibacterial susceptibility was determined by a microdilution broth method according to standard M07-A10,[55] and the optimized protocol has been published previously.[56],[57] Briefly, Mueller–Hinton broth (MHB) adjusted to pH 7.4 (±0.2) was used as the test medium. […] The wells of the microdilution tray contained 200 μL of the MHB with 2-fold serial dilutions of the compounds and were inoculated with 10 μL of the bacterial suspension. The bacterial suspensions were controlled densitometrically to reach 1.5 × 10^8 viable CFU per 1 mL. The minimum inhibitory concentration (MIC) values, defined as 95% inhibition of bacterial growth, were determined after 24 h of incubation at 35 °C ± 1 °C.

E. coli K12, CCM 7929 = experiment: Microdilution broth MIC; type: cell-based; settings: Escherichia coli
Protocol: as §1, §2

[3] = test system: S. epidermidis—clinical isolate C1936; experiment: Microdilution broth MIC; type: cell-based; settings: Staphylococcus epidermidis, 24 h
Protocol: as §1, §2

[4] = test system: E. coli—clinical isolate A1235; experiment: Microdilution broth MIC; type: cell-based; settings: Escherichia coli, 24 h
Protocol: as §1, §2

[5] = test system: K. pneumoniae ESBL+—clinical isolate C1914; experiment: Microdilution broth MIC; type: cell-based; settings: Klebsiella pneumoniae, 24 h
Protocol: as §1, §2

[6] = test system: P. aeruginosa MR—clinical isolate A1245; experiment: Microdilution broth MIC; type: cell-based; settings: Pseudomonas aeruginosa, 24 h
Protocol: as §1, §2

[7] = test system: E. faecium VRE—clinical isolate S2484; experiment: Microdilution broth MIC; type: cell-based; settings: Enterococcus faecium, 24 h
Protocol: as §1, §2

[8] = Dynamic light scattering (DLS/MADLS) of micelles in physiological solution; type: physicochemical
Protocol: The size of micelles and micellar aggregates was estimated by the dynamic light scattering (DLS) method using NanoBrook OMNI ZetaPALS (Brookhaven Instruments, USA) with a detection angle 90° and 640 nm laser. The presented diameters are mean values from the intensity-weighted size distribution. The composition of the samples was as follows: dendron (1.0 mM) and NaCl (0.9%) in deionized water. The solutions were sonicated for 30 min, filtered through 0.45 μm Nylon syringe filters (Avantor, USA), placed in standard polystyrene cuvettes (BI-SCP, Brookhaven Instruments), and stored at 4 °C. All measurements were conducted at 25 °C. Measurement time was set to 5 min, and each measurement was repeated 5 times. The analysis of data was performed using Brookhaven Instruments software Particle Solutions v3.6.07136.
MADLS and size dependence on concentration and pH were measured on Zetasizer Ultra Red (Malvern Panalytical, UK) equipped with a 632.8 nm laser, applying detection angles 12.78°, 90°, and 174.7° in the case of MADLS measurements and 12.78° for size dependence measurements. MADLS and concentration dependence were measured in DTS0012 polystyrene cuvettes (Malvern Panalytical, UK); pH dependence was studied by acidobasic titration in DTS1070 folded capillary Zeta cell, using MPT-3 Multipurpose Titrator and DEG0003 Auto Degasser (all Malvern Panalytical, UK). The concentration dependence measurement started at 1.0 mM and the samples were diluted 2-fold until the minimum concentration 0.06 mM. For each concentration, the measurement was repeated 3 times giving 15 measurements in total. The pH dependence measurement started at pH 12; the titration was performed with a step of 2 and at each step, the measurement was repeated 3 times, giving 18 measurements in total. Malvern Panalytical software ZS Xplorer version 3.3.1.5 was used for the analysis of data.

[9] = CCM4516, 24 h, 95% inhibition of growth, read-out: MIC
[10] = CCM7929, 24 h, 95% inhibition of growth, read-out: MIC
[11] = 95% inhibition of growth, read-out: MIC

| SMILES | MIC [1] [µM] | PI of dendriplex ([2]; CR 1.2) | mean diameter of dendriplex ([2]; CR 1.2, anti-miR-21 500 nM) [μm] | PI of dendriplex ([2]; CR 2.5) | mean diameter of dendriplex ([2]; CR 2.5, anti-miR-21 500 nM) [μm] | PI of dendriplex ([2]; CR 5) | mean diameter of dendriplex ([2]; CR 5, anti-miR-21 500 nM) [μm] | PI of dendriplex ([2]; CR 10) | mean diameter of dendriplex ([2]; CR 10, anti-miR-21 500 nM) [μm] | MIC (S. aureus CCM 4516; [9]) [µM] | MIC (E. coli K12, CCM 7929; [10]) [µM] | MIC [3, 11] [µM] | MIC [4, 11] [µM] | MIC [5] [µM] | MIC [6] [µM] | MIC [7] [µM] | further results |
| --- | --- | --- | --- | --- | --- | --- | --- | --- | --- | --- | --- | --- | --- | --- | --- | --- | --- |
| CCCCCCCCCCCCNC(=O)c1ccc(OCCC[Si](CCCSCC(=O)NCCC[P+](c2ccccc2)(c2ccccc2)c2ccccc2)(CCCSCC(=O)NCCC[P+](c2ccccc2)(c2ccccc2)c2ccccc2)CCCSCC(=O)NCCC[P+](c2ccccc2)(c2ccccc2)c2ccccc2)cc1 [DnP3-1C12] | 3.13 | 0.07 | 0.14 | 0.2 | 0.9 | 0.3 | > 1 | 0.1 | > 1 | 3.13 | 6.25 | 1.56 | 12.5 | > 12.5 | > 12.5 | 1.15 |  |
| CCCCCCCCCCCCCCCCCCNC(=O)c1ccc(OCCC[Si](CCCSCC(=O)NCCC[P+](c2ccccc2)(c2ccccc2)c2ccccc2)(CCCSCC(=O)NCCC[P+](c2ccccc2)(c2ccccc2)c2ccccc2)CCCSCC(=O)NCCC[P+](c2ccccc2)(c2ccccc2)c2ccccc2)cc1 [DnP3-1C18] | 6.25 | 0.14 | 0.23 | 0.2 | 0.5 | 0.4 | > 1 | 0.3 | > 1 | 6.25 | > 6.25 | 3.13 | > 6.25 | > 6.25 | > 6.25 | 6.25 |  |
| CCCCCCCCCCCCNC(=O)c1cc(OCCC[Si](CCCSCC(=O)NCCC[P+](c2ccccc2)(c2ccccc2)c2ccccc2)(CCCSCC(=O)NCCC[P+](c2ccccc2)(c2ccccc2)c2ccccc2)CCCSCC(=O)NCCC[P+](c2ccccc2)(c2ccccc2)c2ccccc2)cc(C(=O)NCCCCCCCCCCCC)c1 [DnP3-2C12] | > 12.5 | 0.11 | 0.13 | 0.2 | 0.8 | 0.3 | 1.0 | 0.14 | 0.18 |  |  |  |  | > 12.5 | > 12.5 | > 12.5 | PDI ([8]; 1.0 mM dendron, 0.9% NaCl): ≈ 0.2; mean size (DLS, intensity-weighted) ([8]; 1.0 mM dendron, 0.9% NaCl, 25 °C, start of testing period): 21 nm; mean size (DLS, intensity-weighted) ([8]; 1.0 mM dendron, 0.9% NaCl, after 75 day testing period, stored at 4 °C): 25 nm; mean size of the second population (MADLS) ([8]; aggregates): 37 nm; mean diameter of the smaller particles (MADLS) ([8]; isolated micelles): 10.0 nm; PI of dendriplex ([2]; CR 20): 0.17; mean diameter of dendriplex ([2]; CR 20, anti-miR-21 500 nM): 0.14 μm; MIC (S. aureus CCM 4516; CCM4516, 24 h): > 12.5 µM; MIC (E. coli K12, CCM 7929; CCM7929, 24 h): > 12.5 µM; MIC [3]: > 12.5 µM; MIC [4]: > 12.5 µM |
